Laboratory results taken from PMC7939570, “Discovery of potent histone deacetylase inhibitors with modified phenanthridine caps” (Journal of Enzyme Inhibition and Medicinal Chemistry, 2021).

How the values were obtained:
[1] = test system: Hela nucleus extract containing a mixture of HDAC isoforms; experiment: HDAC enzyme inhibitory assay with Hela nucleus extract; assay type: biochemical; details: 1 µM, mean of three experiments
Experimental: The HDAC enzyme inhibitory activities of synthesised compounds were investigated by utilising Hela nucleus extract containing a mixture of HDAC isoforms. Percentage inhibitory rate was used to determine the activity of tested compounds (Tables 1 and 2). The Fa series compounds were firstly synthesised for the activity screening. […] To investigate whether aromatic linker could improve the inhibitory activities, structural modifications were performed on current molecules.

U937 cells = experiment: MTT antiproliferative assay, U937 cells; details: U937 cells, MTT, mean of three experiments; for U937 percentage inhibitory rate: 1 µM; for inhibition at 1 µM: Homo sapiens, U-937, read-out: U937 percentage inhibitory rate, 1 µM

Row | Compound | HDACs percentage inhibitory rate [1] [%] | U937 percentage inhibitory rate (U937 cells) [%] | inhibition at 1 µM (U937 cells) [%]
1 | O=C(CCCNC(=O)c1ccc(-c2cc3c(cc2NC(=O)c2ccc(F)cc2)OCO3)cc1)NO [Fa-3, 4-{4-[6-(4-Fluoro-benzoylamino)-benzo[1,3]dioxol-5-yl]-benzoylamino}-N-Hydroxy-butyramide] | 9.22 ± 2.28 |  | 19.4 ± 1.44
2 | O=C(CCCNC(=O)c1ccc(-c2cc3c(cc2NC(=O)c2cccc(F)c2)OCO3)cc1)NO [Fa-5, 4-{4-[6-(3-Fluoro-benzoylamino)-benzo[1,3]dioxol-5-yl]-benzoylamino}-N-Hydroxy-butyramide] |  | 33.95 ± 1.70 | 19.9 ± 1.33
3 | O=C(CCCNC(=O)c1ccc(-c2cc3c(cc2NC(=O)c2ccccc2C(F)(F)F)OCO3)cc1)NO [Fa-6, 4-{4-[6-(2-Trifluoromethyl-benzoylamino)-benzo[1,3]dioxol-5-yl]-benzoylamino}-N-Hydroxy-butyramide] | 24.88 ± 4.88 |  | 15 ± 2.47
4 | CCc1ccc(C(=O)Nc2cc3c(cc2-c2ccc(C(=O)NCCCC(=O)NO)cc2)OCO3)cc1 [Fa-7, 4-{4-[6-(4-Ethyl-benzoylamino)-benzo[1,3]dioxol-5-yl]-benzoylamino}-N-Hydroxy-butyramide] | 25.79 ± 5.79 |  | 22.2 ± 2.28
5 | O=C(CCCNC(=O)c1ccc(-c2cc3c(cc2NC(=O)c2ccc(C(F)(F)F)cc2)OCO3)cc1)NO [Fa-12, 4-{4-[6–(4-Trifluoromethyl-benzoylamino)-benzo[1,3]dioxol-5-yl]-benzoylamino}-N-Hydroxy-butyramide] | 17.69 ± 3.52 |  | 48.5 ± 3.98
6 | COc1ccc(C(=O)Nc2cc3c(cc2-c2ccc(C(=O)NCCCC(=O)NO)cc2)OCO3)cc1 [Fa-13, 4-{4-[6–(4-Methoxy-benzoylamino)-benzo[1,3]dioxol-5-yl]-benzoylamino}-N-Hydroxy-butyramide] | 44.51 ± 0.22 |  | 88.9 ± 5
7 | O=C(CCCNC(=O)c1ccc(-c2cc3c(cc2NC(=O)c2ccc(OC(F)(F)F)cc2)OCO3)cc1)NO [Fa-16, 4-{4-[6–(4-Trifluoromethoxy-benzoylamino)-benzo[1,3]dioxol-5-yl]-benzoylamino}-N-Hydroxy-butyramide] | 34.10 ± 1.02 |  | 16.1 ± 2.82
8 | O=C(CCCNC(=O)c1ccc(-c2cc3c(cc2NC(=O)c2ccc(F)c(Cl)c2)OCO3)cc1)NO [Fa-19, 4-{4-[6–(3-Chloro-4-fluoro-benzoylamino)-benzo[1,3]dioxol-5-yl]-benzoylamino}-N-Hydroxy-butyramide] | 24.43 ± 2.90 |  | 15.8 ± 2.29
9 | CCCc1ccc(C(=O)Nc2cc3c(cc2-c2ccc(C(=O)NCCCC(=O)NO)cc2)OCO3)cc1 [Fa-20, 4-{4-[6–(4-Propyl-benzoylamino)-benzo[1,3]dioxol-5-yl]-benzoylamino}-N-Hydroxy-butyramide] | 21.14 ± 2.55 |  | 12.2 ± 0.24
10 | O=C(CCCNC(=O)c1ccc(-c2cc3c(cc2NC(=O)c2c(F)cccc2Cl)OCO3)cc1)NO [Fa-21, 4-{4-[6–(2-Chloro-6-fluoro-benzoylamino)-benzo[1,3]dioxol-5-yl]-benzoylamino}-N-Hydroxy-butyramide] | 15.58 ± 3.25 |  | 11.2 ± 1.01
11 | O=C(CCCNC(=O)c1ccc(-c2cc3c(cc2NC(=O)c2cc(F)ccc2F)OCO3)cc1)NO [Fa-22, 4-{4-[6–(2,5-Difluoro-benzoylamino)-benzo[1,3]dioxol-5-yl]-benzoylamino}-N-Hydroxy-butyramide] | 24.89 ± 4.89 |  | 4.73 ± 0.64
12 | O=C(CCCNC(=O)c1ccc(-c2cc3c(cc2NC(=O)c2ccc(F)c(C(F)(F)F)c2)OCO3)cc1)NO [Fa-23, 4-{4-[6–(4-Fluoro-3-trifluoromethyl-benzoylamino)-benzo[1,3]dioxol-5-yl]-benzoylamino}-N-Hydroxy-butyramide] | 20.29 ± 0.29 |  | 17.4 ± 3.35
13 | O=C(NO)c1ccc(CNC(=O)c2ccc(-c3cc4c(cc3NC(=O)c3ccccc3)OCO4)cc2)cc1 [Fb-1, 4-{[4–(6-Benzoylamino-benzo[1,3]dioxol-5-yl)-benzoylamino]-methyl}-N-Hydroxy-benzamide] | 57.50 ± 2.92 |  | 65.2 ± 0.29
14 | O=C(NO)c1ccc(CNC(=O)c2ccc(-c3cc4c(cc3NC(=O)c3ccc(C(F)(F)F)cc3)OCO4)cc2)cc1 [Fb-7, 4-({4-[6–(4-Trifluoromethyl-benzoylamino)-benzo[1,3]dioxol-5-yl]-benzoylamino}-methyl)-N-Hydroxy-benzamide] | 47.03 ± 15.05 |  | 84.9 ± 1.68
15 | O=C(NO)c1ccc(CNC(=O)c2ccc(-c3cc4c(cc3NC(=O)c3cccc(C(F)(F)F)c3)OCO4)cc2)cc1 [Fb-8, 4-({4-[6–(3-Trifluoromethyl-benzoylamino)-benzo[1,3]dioxol-5-yl]-benzoylamino}-methyl)-N-Hydroxy-benzamide] | 47.09 ± 0.62 |  | 78.2 ± 3.05
16 | O=C(NO)c1ccc(CNC(=O)c2ccc(-c3cc4c(cc3NC(=O)c3ccc(F)cc3)OCO4)cc2)cc1 [Fb-11, 4-({4-[6–(4-Fluoro-benzoylamino)-benzo[1,3]dioxol-5-yl]-benzoylamino}-methyl)-N-Hydroxy-benzamide] | 48.27 ± 0.62 |  | 59.2 ± 6.95

Second part, led by results:

Row | HDACs percentage inhibitory rate [1] [%] | Compound | U937 percentage inhibitory rate (U937 cells) [%] | inhibition at 1 µM (U937 cells) [%]
17 | 52.44 ± 6.17 | 4-{4-[6–(3-Nitro-benzoylamino)-benzo[1,3]dioxol-5-yl]-benzoylamino}-N-Hydroxy-butyramide [Fa-17] | 13.42 ± 0.81 | 
18 | 6.63 ± 1.28 | O=C(CCCNC(=O)c1ccc(-c2cc3c(cc2NC(=O)c2cccc(Br)c2)OCO3)cc1)NO [Fa-1, 4-{4-[6–(3-Bromo-benzoylamino)-benzo[1,3]dioxol-5-yl]-benzoylamino}-N-Hydroxy-butyramide] |  | 21 ± 0.55
19 | 15.23 ± 3.23 | COc1ccccc1C(=O)Nc1cc2c(cc1-c1ccc(C(=O)NCCCC(=O)NO)cc1)OCO2 [Fa-2, 4-{4-[6–(2-Methoxy-benzoylamino)-benzo[1,3]dioxol-5-yl]-benzoylamino}-N-Hydroxy-butyramide] |  | 19.2 ± 1.09
20 | 13.65 ± 4.04 | Cc1ccccc1C(=O)Nc1cc2c(cc1-c1ccc(C(=O)NCCCC(=O)NO)cc1)OCO2 [Fa-4, 4-{4-[6-(2-Methyl-benzoylamino)-benzo[1,3]dioxol-5-yl]-benzoylamino}-N-Hydroxy-butyramide] |  | 18.2 ± 2.91
21 | 5.32 ± 1.72 | O=C(CCCNC(=O)c1ccc(-c2cc3c(cc2NC(=O)c2ccccc2F)OCO3)cc1)NO [Fa-8, 4-{4-[6-(2-Fluoro-benzoylamino)-benzo[1,3]dioxol-5-yl]-benzoylamino}-N-Hydroxy-butyramide] |  | 19.9 ± 1.96
22 | 18.92 ± 1.30 | O=C(CCCNC(=O)c1ccc(-c2cc3c(cc2NC(=O)c2cccc(C(F)(F)F)c2)OCO3)cc1)NO [Fa-9, 4-{4-[6-(3-Trifluoromethyl-benzoylamino)-benzo[1,3]dioxol-5-yl]-benzoylamino}-N-Hydroxy-butyramide] |  | 20.45 ± 0.05
23 | 23.41 ± 1.95 | O=C(CCCNC(=O)c1ccc(-c2cc3c(cc2NC(=O)c2ccccc2Cl)OCO3)cc1)NO [Fa-10, 4-{4-[6-(2-Chloro-benzoylamino)-benzo[1,3]dioxol-5-yl]-benzoylamino}-N-Hydroxy-butyramide] |  | 23 ± 1.23
24 | 14.32 ± 2.19 | O=C(CCCNC(=O)c1ccc(-c2cc3c(cc2NC(=O)c2ccccc2)OCO3)cc1)NO [Fa-11, 4-[4–(6-Benzoylamino-benzo[1,3]dioxol-5-yl)-benzoylamino]-N-Hydroxy-butyramide] |  | 25.6 ± 1.76
25 | 28.72 ± 4.74 | O=C(CCCNC(=O)c1ccc(-c2cc3c(cc2NC(=O)c2cc(F)cc(F)c2)OCO3)cc1)NO [Fa-14, 4-{4-[6–(3,5-Difluoro-benzoylamino)-benzo[1,3]dioxol-5-yl]-benzoylamino}-N-Hydroxy-butyramide] |  | 9.84 ± 0.71
26 | 19.51 ± 4.10 | O=C(CCCNC(=O)c1ccc(-c2cc3c(cc2NC(=O)c2ccc(F)cc2F)OCO3)cc1)NO [Fa-15, 4-{4-[6–(2,4-Difluoro-benzoylamino)-benzo[1,3]dioxol-5-yl]-benzoylamino}-N-Hydroxy-butyramide] |  | 6.76 ± 0.26
27 | 31.47 ± 3.47 | O=C(CCCNC(=O)c1ccc(-c2cc3c(cc2NC(=O)c2ccc(F)cc2C(F)(F)F)OCO3)cc1)NO [Fa-18, 4-{4-[6–(4-Fluoro-2-trifluoromethyl-benzoylamino)-benzo[1,3]dioxol-5-yl]-benzoylamino}-N-Hydroxy-butyramide] |  | 10.3 ± 1.31
28 | 58.36 ± 5.06 | O=C(NO)c1ccc(CNC(=O)c2ccc(-c3cc4c(cc3NC(=O)c3cccc(F)c3)OCO4)cc2)cc1 [Fb-6, 4-({4-[6–(3-Fluoro-benzoylamino)-benzo[1,3]dioxol-5-yl]-benzoylamino}-methyl)-N-Hydroxy-benzamide] |  | 92.2 ± 2.72
29 | 35.97 ± 3.07 | Cc1ccccc1C(=O)Nc1cc2c(cc1-c1ccc(C(=O)NCc3ccc(C(=O)NO)cc3)cc1)OCO2 [Fb-9, 4-({4-[6–(2-Methyl-benzoylamino)-benzo[1,3]dioxol-5-yl]-benzoylamino}-methyl)-N-Hydroxy-benzamide] |  | 69.2 ± 3.08
30 | 49.47 ± 9.25 | O=C(NO)c1ccc(CNC(=O)c2ccc(-c3cc4c(cc3NC(=O)c3cccc(Br)c3)OCO4)cc2)cc1 [Fb-10, 4-({4-[6–(3-Bromo-benzoylamino)-benzo[1,3]dioxol-5-yl]-benzoylamino}-methyl)-N-Hydroxy-benzamide] |  | 86.2 ± 4.18
